Where two headings read alike, the source gives them in different places.
What was measured:
human TLR8 = human TLR8 (Homo sapiens (Human), UniProt Q9NR97); assay: TLR8 inhibition reporter assay (HEK-Blue SEAP); settings: R848 15.9 μM;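 also: SEAP driven by IFN-β minimal promoter carrying NF-κB and AP-1 sites, compounds dosed 0.05 nM to 50 µM for 22 h, inhibition scaled between agonist-plus-DMSO and reference-inhibitor wells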
human TLR9 = human TLR9 (Homo sapiens (Human), UniProt Q9NR96); assay: TLR9 inhibition reporter assay (HEK-Blue SEAP); settings: ODN2006 5 nM;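 also: SEAP driven by an IFN-β minimal promoter with NF-κB and AP-1 sites, read after 22 h, compounds dosed 0.05 nM–50 µM, inhibition scaled between agonist plus DMSO and reference-inhibitor wells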
human TLR7 = human TLR7 (Homo sapiens (Human), UniProt Q9NYK1); assay: TLR7 inhibition reporter assay (HEK-Blue SEAP); type: cell-based; settings: HEK-Blue human TLR7 cells, gardiquimod 7.5 μM
[1] = read-out: TLR8 IC50, HEK-Blue human TLR8 cells
[2] = read-out: TLR9 IC50, HEK-Blue human TLR9 cells
[3] = TLR8 IC50, HEK-Blue human TLR8 cells
[4] = TLR9 IC50, HEK-Blue human TLR9 cells

Sequence of human TLR7 (Q9NYK1 27-1049): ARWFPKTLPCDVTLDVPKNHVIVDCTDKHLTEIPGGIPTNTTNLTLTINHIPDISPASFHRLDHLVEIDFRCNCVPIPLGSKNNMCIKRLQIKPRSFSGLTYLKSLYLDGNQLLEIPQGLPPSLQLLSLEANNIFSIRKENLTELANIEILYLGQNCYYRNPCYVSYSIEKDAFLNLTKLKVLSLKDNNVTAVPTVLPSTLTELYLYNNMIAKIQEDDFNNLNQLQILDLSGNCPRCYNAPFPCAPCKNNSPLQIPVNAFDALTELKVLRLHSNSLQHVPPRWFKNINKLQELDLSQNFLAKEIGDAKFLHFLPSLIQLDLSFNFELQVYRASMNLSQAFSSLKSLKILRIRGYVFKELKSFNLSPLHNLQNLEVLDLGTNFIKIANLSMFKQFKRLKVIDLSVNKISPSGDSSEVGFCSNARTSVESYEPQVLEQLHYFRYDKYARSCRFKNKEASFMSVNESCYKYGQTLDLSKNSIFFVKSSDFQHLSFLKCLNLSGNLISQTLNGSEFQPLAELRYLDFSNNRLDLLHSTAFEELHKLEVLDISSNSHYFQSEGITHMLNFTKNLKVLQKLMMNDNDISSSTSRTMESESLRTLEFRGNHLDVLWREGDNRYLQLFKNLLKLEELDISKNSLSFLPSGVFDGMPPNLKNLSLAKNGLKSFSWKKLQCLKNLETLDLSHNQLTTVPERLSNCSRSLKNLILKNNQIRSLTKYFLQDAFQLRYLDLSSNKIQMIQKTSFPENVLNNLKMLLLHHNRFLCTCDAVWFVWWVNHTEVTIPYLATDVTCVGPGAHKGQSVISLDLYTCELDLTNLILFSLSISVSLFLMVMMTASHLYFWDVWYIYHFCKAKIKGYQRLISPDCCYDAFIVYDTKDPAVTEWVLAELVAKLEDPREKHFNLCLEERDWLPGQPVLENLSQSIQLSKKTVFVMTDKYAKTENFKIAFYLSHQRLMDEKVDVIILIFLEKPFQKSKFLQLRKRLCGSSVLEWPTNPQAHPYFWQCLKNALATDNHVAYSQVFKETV
Sequence of human TLR8 (Q9NR97 27-1041): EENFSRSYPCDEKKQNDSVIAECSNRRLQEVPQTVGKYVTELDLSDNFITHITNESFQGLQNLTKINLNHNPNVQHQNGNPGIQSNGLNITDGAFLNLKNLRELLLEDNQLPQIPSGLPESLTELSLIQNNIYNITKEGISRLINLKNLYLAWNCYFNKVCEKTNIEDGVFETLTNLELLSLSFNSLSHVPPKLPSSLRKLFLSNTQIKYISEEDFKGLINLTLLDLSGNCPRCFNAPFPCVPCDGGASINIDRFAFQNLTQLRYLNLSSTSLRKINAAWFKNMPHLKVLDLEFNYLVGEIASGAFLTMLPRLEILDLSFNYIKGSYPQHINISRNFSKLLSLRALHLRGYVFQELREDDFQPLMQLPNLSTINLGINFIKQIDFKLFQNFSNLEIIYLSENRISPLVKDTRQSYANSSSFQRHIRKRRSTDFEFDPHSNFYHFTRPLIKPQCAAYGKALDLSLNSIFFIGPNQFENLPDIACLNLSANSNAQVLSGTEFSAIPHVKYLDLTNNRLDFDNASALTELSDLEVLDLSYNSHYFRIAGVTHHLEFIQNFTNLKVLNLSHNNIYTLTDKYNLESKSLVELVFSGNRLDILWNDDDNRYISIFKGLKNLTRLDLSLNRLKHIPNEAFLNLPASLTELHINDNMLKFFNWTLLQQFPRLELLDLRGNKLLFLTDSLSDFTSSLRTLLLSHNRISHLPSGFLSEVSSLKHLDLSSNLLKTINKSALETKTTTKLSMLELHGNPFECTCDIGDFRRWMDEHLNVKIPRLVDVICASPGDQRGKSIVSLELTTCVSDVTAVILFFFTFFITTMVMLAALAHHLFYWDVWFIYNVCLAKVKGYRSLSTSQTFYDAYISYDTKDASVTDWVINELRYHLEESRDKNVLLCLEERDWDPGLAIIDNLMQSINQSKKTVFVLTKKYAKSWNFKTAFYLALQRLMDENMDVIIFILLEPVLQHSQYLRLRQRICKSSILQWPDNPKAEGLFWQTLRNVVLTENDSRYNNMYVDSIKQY
Sequence of human TLR9 (Q9NR96 26-1032): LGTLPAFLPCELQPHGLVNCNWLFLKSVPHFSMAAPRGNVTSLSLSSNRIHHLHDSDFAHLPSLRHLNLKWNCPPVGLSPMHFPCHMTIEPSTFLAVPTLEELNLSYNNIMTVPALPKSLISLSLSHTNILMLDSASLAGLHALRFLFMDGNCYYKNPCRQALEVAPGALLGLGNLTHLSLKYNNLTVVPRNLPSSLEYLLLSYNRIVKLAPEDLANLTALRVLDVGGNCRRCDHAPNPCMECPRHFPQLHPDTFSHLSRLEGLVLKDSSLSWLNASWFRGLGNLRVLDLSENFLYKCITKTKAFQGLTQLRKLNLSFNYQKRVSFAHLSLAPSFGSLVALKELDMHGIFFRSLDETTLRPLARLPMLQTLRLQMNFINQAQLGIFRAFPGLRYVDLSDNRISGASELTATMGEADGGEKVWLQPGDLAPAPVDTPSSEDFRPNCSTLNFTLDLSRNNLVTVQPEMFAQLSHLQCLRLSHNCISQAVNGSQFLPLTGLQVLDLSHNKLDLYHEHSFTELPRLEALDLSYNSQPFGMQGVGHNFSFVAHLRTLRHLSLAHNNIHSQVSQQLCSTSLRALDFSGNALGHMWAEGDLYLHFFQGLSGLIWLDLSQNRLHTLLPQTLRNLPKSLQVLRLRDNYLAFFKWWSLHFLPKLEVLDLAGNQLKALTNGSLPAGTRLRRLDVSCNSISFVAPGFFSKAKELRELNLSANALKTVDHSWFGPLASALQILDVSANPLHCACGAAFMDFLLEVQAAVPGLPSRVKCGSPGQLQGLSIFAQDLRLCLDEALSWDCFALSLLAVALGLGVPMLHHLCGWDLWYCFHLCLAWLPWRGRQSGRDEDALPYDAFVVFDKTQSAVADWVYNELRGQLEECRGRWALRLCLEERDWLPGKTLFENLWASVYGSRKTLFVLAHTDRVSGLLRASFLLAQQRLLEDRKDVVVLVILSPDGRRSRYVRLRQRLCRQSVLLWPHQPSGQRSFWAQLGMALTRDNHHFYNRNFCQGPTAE

SMILES | IC50 (human TLR8; [1]) | IC50 (human TLR9; [2]) | IC50 (human TLR7) | IC50 (human TLR8; [3]) | IC50 (human TLR9; [4])
Cc1c(-c2[nH]c3ccc(N4CCN(C(=O)CN5CCC6(CCOC6)C5)CC4)nc3c2C(C)C)cn2ncnc2c1C (stereo not drawn) [Example 947] | 0.66 nM | 8770 nM | 1.9 nM | – | –
Cc1c(-c2[nH]c3ccc(N4CCN(C(=O)CN5CCC(C)(O)C5)CC4)nc3c2C(C)C)cn2ncnc2c1C (stereo not drawn) [Example 948] | 1.4 nM | 12800 nM | 2.8 nM | – | –
Cc1c(-c2[nH]c3ccc(N4CCN(C(=O)CN(C)CC(C)(C)O)CC4)nc3c2C(C)C)cn2ncnc2c1C [Example 949] | 1.6 nM | 31000 nM | 2.6 nM | – | –
Cc1c(-c2[nH]c3ccc(N4CCN(C(=O)CN5CCOCC5(C)C)CC4)nc3c2C(C)C)cn2ncnc2c1C [Example 950] | 4.9 nM | 36100 nM | 7.2 nM | – | –
Cc1c(-c2[nH]c3ccc(N4CCN(C(=O)CN5CC6(C5)CS(=O)(=O)C6)CC4)nc3c2C(C)C)cn2ncnc2c1C [Example 951] | 1.5 nM | > 50000 nM | 6.5 nM | – | –
[2H]C([2H])([2H])NCC(=O)N1CCN(c2ccc3[nH]c(-c4cn5ncnc5c(C)c4C)c(C(C)C)c3n2)CC1 [Example 952] | – | – | 1.8 nM | 0.7 nM | 7860 nM
Cc1c(-c2[nH]c3ccc(N4CCN(C(=O)CN(CCO)C(C)(C)C)C[C@H]4C)nc3c2C(C)C)cn2ncnc2c1C [Example 953] | 5.3 nM | 12000 nM | 0.92 nM | – | –
Cc1c(-c2[nH]c3ccc(N4C[C@H](C)N(C(=O)CN(CCO)C(C)(C)C)C[C@H]4C)nc3c2C(C)C)cn2ncnc2c1C [Example 954] | 36 nM | 20900 nM | 1.9 nM | – | –
Cc1c(-c2[nH]c3ccc(N4CCN(C(=O)CN5CC6(CCOC6)C5)CC4)nc3c2C(C)C)cn2ncnc2c1C [Example 956] | 1.9 nM | 9650 nM | 1 nM | – | –
Cc1c(-c2[nH]c3ccc(N4CCN(C(=O)CN5CCC6(COC6)C5)CC4)nc3c2C(C)C)cn2ncnc2c1C [Example 957] | 2.9 nM | 24400 nM | 0.92 nM | – | –
Cc1c(-c2[nH]c3ccc(N4C[C@@H](C)N(C(=O)CCN5CC6(C5)CS(=O)(=O)C6)C[C@@H]4C)nc3c2C(C)C)cn2ncnc2c1C [Example 959] | 0.29 nM | 7680 nM | 1.4 nM | – | –
Cc1c(-c2[nH]c3ccc(N4C[C@@H](C)N(C(=O)CCN5CCC(F)(F)C5)C[C@@H]4C)nc3c2C(C)C)cn2ncnc2c1C [Example 962] | 17 nM | > 50000 nM | 3.7 nM | – | –
Cc1c(-c2[nH]c3ccc(N4CCN(C(=O)CN(C)CC5CC5)CC4)nc3c2C(C)C)cn2ncnc2c1C [Example 966] | 1.3 nM | 6020 nM | 2.4 nM | – | –
Cc1c(-c2[nH]c3ccc(N4CCN(C(=O)CN(C)C5COC5)CC4)nc3c2C(C)C)cn2ncnc2c1C [Example 967] | 1.2 nM | 38700 nM | 7.9 nM | – | –
Cc1c(-c2[nH]c3ccc(N4CCN(C(=O)CNC5CC5)CC4)nc3c2C(C)C)cn2ncnc2c1C [Example 968] | 0.69 nM | 16400 nM | 1.9 nM | – | –
Cc1c(-c2[nH]c3ccc(N4CCN(C(=O)CN(C)CCO)CC4)nc3c2C(C)C)cn2ncnc2c1C [Example 969] | 0.12 nM | 7180 nM | 1.3 nM | – | –
CCNCC(=O)N1CCN(c2ccc3[nH]c(-c4cn5ncnc5c(C)c4C)c(C(C)C)c3n2)CC1 [Example 970] | 0.92 nM | 10700 nM | 3.1 nM | – | –

SMILES | IC50 (human TLR8; [1]) | IC50 (human TLR9; [2]) | IC50 (human TLR7) | IC50 (human TLR8; [3]) | IC50 (human TLR9; [4])
Cc1c(-c2[nH]c3ccc(N4CCN(C(=O)CN5CCC(CO)CC5)CC4)nc3c2C(C)C)cn2ncnc2c1C [Example 971] | 0.85 nM | 9250 nM | 3 nM | – | –
Cc1c(-c2[nH]c3ccc(N4C5CNCC4COC5)nc3c2C(C)C)cn2ncnc2c1C [Example 972] | 3.1 nM | 6920 nM | 3.3 nM | – | –
Cc1c(-c2[nH]c3ccc(N4CC5CCC(C4)N5)nc3c2C(C)C)cn2ncnc2c1C [Example 973] | 1.7 nM | 15800 nM | 6.7 nM | – | –
Cc1c(-c2[nH]c3ccc(N4C[C@H]5CCC[C@H](C4)N5)nc3c2C(C)C)cn2ncnc2c1C [Example 974] | 0.71 nM | 3920 nM | 1.1 nM | – | –
Cc1c(-c2[nH]c3ccc(N4C[C@@H](C)N[C@@H](C)C4)nc3c2C(C)C)cn2ncnc2c1C [Example 976] | 0.96 nM | 13400 nM | 2.5 nM | – | –
Cc1c(-c2[nH]c3ccc(N4CCNC(C)C4C)nc3c2C(C)C)cn2ncnc2c1C (stereo not drawn) [Example 977] | 2.1 nM | 8600 nM | 1.4 nM | – | –
Cc1c(-c2[nH]c3ccc(N4C5CNCC4C5)nc3c2C(C)C)cn2ncnc2c1C [Example 978] | 1.8 nM | 11500 nM | 11 nM | – | –
Cc1c(-c2[nH]c3ccc(N4[C@@H]5CC[C@H]4CNC5)nc3c2C(C)C)cn2ncnc2c1C [Example 979] | 0.8 nM | 4290 nM | 1.1 nM | – | –
Cc1c(-c2[nH]c3ccc(N4C[C@H]5CC[C@@H]4CN5)nc3c2C(C)C)cn2ncnc2c1C [Example 980] | 2.3 nM | 6270 nM | 2.2 nM | – | –
Cc1c(-c2[nH]c3ccc(N4C[C@H]5C[C@@H]4CN5)nc3c2C(C)C)cn2ncnc2c1C [Example 981] | 0.51 nM | 3070 nM | 0.95 nM | – | –
Cc1c(-c2[nH]c3ccc(N4CCNCC45CC5)nc3c2C(C)C)cn2ncnc2c1C [Example 982] | 20 nM | 32800 nM | 9.8 nM | – | –
Cc1c(-c2[nH]c3ccc(N4C[C@@H]5CC4CN5)nc3c2C(C)C)cn2ncnc2c1C [Example 984] | 0.85 nM | 3430 nM | 1 nM | – | –
Cc1c(-c2[nH]c3ccc(N4C[C@H]5C[C@@H](C4)N5)nc3c2C(C)C)cn2ncnc2c1C [Example 985] | 1.1 nM | 3900 nM | 1.6 nM | – | –
Cc1c(-c2[nH]c3ccc(N4CCN[C@H](CO)C4)nc3c2C(C)C)cn2ncnc2c1C [Example 987] | 0.5 nM | 11300 nM | 2.9 nM | – | –
Cc1c(-c2[nH]c3ccc(N4CCN[C@H](CO)C4)nc3c2C(C)C)cn2ncnc2c1C [Example 994] | 3.4 nM | 11800 nM | 13 nM | – | –
Cc1c(-c2[nH]c3ccc(N4CCC(N(C)CC5(C)COC5)CC4)nc3c2C(C)C)cn2ncnc2c1C [Example 996] | 0.4 nM | 11000 nM | 1.3 nM | – | –

These reach a lower IC50 (human TLR7). Values come first.

IC50 (human TLR8; [1]) | IC50 (human TLR9; [2]) | IC50 (human TLR7) | IC50 (human TLR8; [3]) | IC50 (human TLR9; [4]) | SMILES
2 nM | 20400 nM | 0.76 nM | – | – | Cc1c(-c2[nH]c3ccc(N4CCN(C(=O)CN(CCO)C(C)(C)C)[C@H](C)C4)nc3c2C(C)C)cn2ncnc2c1C [Example 955]
2.3 nM | 11200 nM | 0.27 nM | – | – | Cc1c(-c2[nH]c3ccc(N4C[C@@H](C)N(C(=O)CCN5CC6(CCO6)C5)C[C@@H]4C)nc3c2C(C)C)cn2ncnc2c1C [Example 958]
0.32 nM | 3170 nM | 0.77 nM | – | – | Cc1c(-c2[nH]c3ccc(N4C[C@@H](C)N(C(=O)CCN5CC6(CCOC6)C5)C[C@@H]4C)nc3c2C(C)C)cn2ncnc2c1C [Example 960]
0.8 nM | 8340 nM | 0.35 nM | – | – | Cc1c(-c2[nH]c3ccc(N4C[C@@H](C)N(C(=O)CCN5CCC6(COC6)C5)C[C@@H]4C)nc3c2C(C)C)cn2ncnc2c1C [Example 961]
1.9 nM | 35300 nM | 0.84 nM | – | – | Cc1c(-c2[nH]c3ccc(N4C[C@@H](C)N(C(=O)CCN5CCOCC5(C)C)C[C@@H]4C)nc3c2C(C)C)cn2ncnc2c1C [Example 963]
– | – | 0.53 nM | 0.25 nM | 3100 nM | [2H]C([2H])([2H])NCCC(=O)N1C[C@H](C)N(c2ccc3[nH]c(-c4cn5ncnc5c(C)c4C)c(C(C)C)c3n2)C[C@H]1C [Example 964]
– | – | 0.39 nM | 1.1 nM | 6480 nM | [2H]C([2H])([2H])N(CCC(=O)N1C[C@H](C)N(c2ccc3[nH]c(-c4cn5ncnc5c(C)c4C)c(C(C)C)c3n2)C[C@H]1C)C([2H])([2H])[2H] [Example 965]
0.12 nM | 6520 nM | 0.82 nM | – | – | Cc1c(-c2[nH]c3ccc(N4CCN[C@@H](C(C)C)C4)nc3c2C(C)C)cn2ncnc2c1C [Example 983]
0.38 nM | 2820 nM | 0.63 nM | – | – | CCC[C@H]1CNCCN1c1ccc2[nH]c(-c3cn4ncnc4c(C)c3C)c(C(C)C)c2n1 [Example 986]
0.23 nM | 3770 nM | 0.36 nM | – | – | CC[C@H]1CNCCN1c1ccc2[nH]c(-c3cn4ncnc4c(C)c3C)c(C(C)C)c2n1 [Example 988]
0.31 nM | 7100 nM | 0.69 nM | – | – | Cc1c(-c2[nH]c3ccc(N4CCN[C@@H](C)C4)nc3c2C(C)C)cn2ncnc2c1C [Example 989]
4 nM | 6020 nM | 0.8 nM | – | – | Cc1c(-c2[nH]c3ccc(N4C[C@H](C)NC[C@H]4C)nc3c2C(C)C)cn2ncnc2c1C [Example 990]
0.32 nM | 5990 nM | 0.27 nM | – | – | Cc1c(-c2[nH]c3ccc(N4C[C@H](C)NC[C@@H]4C)nc3c2C(C)C)cn2ncnc2c1C [Example 991]
0.72 nM | 6310 nM | 0.66 nM | – | – | Cc1c(-c2[nH]c3ccc(N4CCNC[C@@H]4C(C)C)nc3c2C(C)C)cn2ncnc2c1C [Example 992]
1.5 nM | 7230 nM | 0.82 nM | – | – | Cc1c(-c2[nH]c3ccc(N4C[C@@H](C)NC[C@H]4C)nc3c2C(C)C)cn2ncnc2c1C [Example 993]
0.48 nM | 7020 nM | 0.56 nM | – | – | CNC1CCN(c2ccc3[nH]c(-c4cn5ncnc5c(C)c4C)c(C(C)C)c3n2)CC1 [Example 995]
